Here are results for three molecules from publication PMC11329750 (Clinical and Translational Science, 2024).

Each structure is given as a SMILES string.

For data set [1] the following is noted: 900 mg SJW of another brand; absence of autoinduction; cited from earlier work.
The subject of data set [2] is CYP3A. Kind of data set: Oral midazolam microdose. The data set is classed as in vivo, human. To be noted: for F GMR: GMR (90% CI); for bioavailability: F (absolute bioavailability).
Data set [3] relates to CYP3A. Description: Intravenous midazolam microdose. The data set is classed as in vivo, human.
Data set [4] deals with CYP3A. To be noted: 900 mg SJW daily, same brand; cited from earlier work.
Data set [5] relates to CYP3A. Description: Limited-sampling strategy. Particulars: human, in vivo, po, 30 ug.
The conditions of data set [6]: cited from earlier work.
[7] abbreviates: SJW 1800 + rifampin 600 for 7 days vs SJW 1800.

As for `NC(=O)N1c2ccccc2C=Cc2ccccc21` [carbamazepine], in data set [1], the “reduction of exposure to single carbamazepine doses” value is reported as 21%.
In the case of `Cc1ncc2n1-c1ccc(Cl)cc1C(c1ccccc1F)=NC2` [midazolam], in the data set with CYP3A [2] (30 μg midazolam orally, SJW 1800 + rifampin 600 vs baseline), the “F GMR” value was 0.2070 (0.1704–0.2516). Also, the “F GMR” value in the data set with CYP3A [2] (30 μg midazolam orally, SJW 1800 vs baseline) is on record as 0.4437 (0.3735–0.5271). Besides, the CL/F with CYP3A [2] (30 μg midazolam orally, baseline, GM (95% CI)) is listed as 1649 (1290–2109) mL min^−1. The “further increase of midazolam CL orally” value in the data set with CYP3A [2] (setting [7]) amounted to 3.06 fold. In the data set on CYP3A [2] (human, plasma, po, 30 ug), this molecule came in with an AUC(0-inf) of 0.303 ng·h/mL, an AUC(0-t) of 0.258 ng·h/mL, a maximum concentration (Cmax) of 0.139 ng/mL and a Vd/F of 422 L. Besides, in the data set on CYP3A [2] (human, plasma, po, 30 ug, 30 μg midazolam orally, SJW 1800 mg/day for 14 days, GM (95% CI)), the bioavailability amounted to 15.6%. In the data set with CYP3A [2] (human, plasma, po, 30 ug, 30 μg midazolam orally, baseline, GM (95% CI)), this molecule had a bioavailability of 35.1%. In addition, the “further increase of midazolam CL i.v.” value in the data set on CYP3A [3] (setting [7]) is 1.43 fold. The same molecule registered an AUC(0-inf) with CYP3A [3] (human, plasma, intravenous, 10 ug) of 0.287 ng·h/mL. In addition, in the data set with CYP3A [3] (human, plasma, iv, 10 ug), the AUC(0-inf) worked out at 0.334 ng·h/mL, the Vd is 148 L and the half-life was 2.97 h. In addition, the “fold increase of midazolam clearance with a regular midazolam dose” value with CYP3A [4] is given as 4.22. For the same molecule, the AUC in the data set on CYP3A [5] stood at 0.0657 ng·h/mL.
Turning to `CO[C@H]1/C=C/O[C@@]2(C)Oc3c(C)c(O)c4c(O)c(c(/C=N/N5CCN(C)CC5)c(O)c4c3C2=O)NC(=O)/C(C)=C\C=C\[C@H](C)[C@H](O)[C@@H](C)[C@@H](O)[C@@H](C)[C@H](OC(C)=O)[C@@H]1C` [rifampin], the “daily doses at which maximum induction is already reached” value in data set [6] is 300 to 600 mg.
